In series [1] the test system is HIV-1 protease (PR). The format is cell-based. The note with it: SupT1 PR/Gal4 clone, 1 μg/mL Dox; for inhibitor concentration resulting in eGFP activation: analyzed 50 hrs later, range tested 1 nM to 20 μM.
For series [2], the system named is HIV-1 protease (PR). The format is cell-based. The note with it: HEK293T cells pre-treated with 10 uM inhibitor, co-transfected with reporter and pcDNA-PR/Gal4.
Protocol: It was of critical importance to verify the ability for the PR/Gal4 fusion to activate the reporter eGFP by the addition of PR inhibitors. For that purpose, 293T cells were pre-treated with 10 μM Indinavir and then co-transfected with reporter and pcDNA-PR/Gal4 vectors.
293T cells were transfected as follows. 15 μl of 2 mg/mL Polyethylenimine linear 25 kD (Polysciences, Inc.) were added to 125 μl of DMEM in a 1.8 ml Eppendorf tube. 3 μg of each DNA was added drop-wise to each tube. Tubes were mixed and incubated for 20 min at RT. This mixture was then added drop-wise to 293T cells in a 10 cm plate at ˜60-75% confluence. Cells were then analyzed by fluorescence microscopy and/or flow cytometry 24 hrs post transfection.
Top Panel: Fluorescence microscopy of eGFP expression in HEK293T cells 24 hours post transfection with the reporter vector (pFR), or co-transfection with the reporter vector plus either the Gal4, PR/Gal4, or PRm/Gal4 vectors. Bottom panel: HEK293T cells were analyzed by flow cytometry at 24 hours post transfection with the same conditions top panel. Gates were drawn to determine the ability to identify cells with an active PI. […] Quantification of eGFP expression in HEK293T transfected with various assay elements. The numbers of cells under various conditions were quantified for eGFP levels indicative of PR inhibition. Results shown are an average of 3 experiments.
Series [3] has as its system HIV-1 protease (PR). The format is cell-based. The source says:
Finally, cells were infected with virus encoding the reporter, rtTA and inducible wild-type PR/Gal4 (pH-TRE-PR/Gal4) to test the ability for this system in T-cells to indicate the levels of PR activity.
Finally, individual cells from these sorted populations were sorted into a 96 well plate based on the lack of eGFP expression. Clonal cell lines obtained from this experiment were later activated under the same conditions described above, and screened for the individual clones which responded as desired (minimal background and maximal eGFP activation). […] These clones were then expanded and further tested in the following experiments.
To determine the optimal time point for the analysis of eGFP expression in the presence of inhibitor, cells were activated with Dox and analyzed by flow cytometry 4, 8, 12, 16, 20, 25, 50, or 75 hours later. Six-well plates containing 250K cells per well in 3 mL media were treated either with DMSO alone as control, or 1 μg/mL Dox and 10 μM Indinavir.
A 2 ml reaction containing 4 μl of 5 μg/mL Polybrene (Hexadimethrene Bromide, Sigma), 500K SupT1 cells in RPMI (10% FCS, L-glutamine, Pen-strep) and 250 μl frozen viral stocks was mixed, added to wells in 6-well plates, and spun in a hanging bucket rotors Becton Dickinson centrifuge at 1500 RPM, for 120′ at 32° C. Cells were re-suspended and placed in a 37° C. incubator for the analysis of expression at least 72 hours post-infection.
Flow Cytometry was performed on a BD FACSAria with 488 nm and 633 nm lasers. Data was collected on FACSDiva 6.1.1 software and then exported to FlowJo. eGFP expression was detected in the FITC channel and mCherry expression was detected on the PE-Texas-Red channel. Cells were first gated for size and granularity (FSC-A vs SSC-A) followed by doublet gating (FSC-A vs FSC-W and SSC-A vs. SSC-W). Sorted populations were gated on PE-TexasRed vs FITC plot. 250K cells were collected for each sample into 0.5 mL fetal calf serum (FCS) and 1 mL RPMI. Cells were then spun down at 1500 RPM and resuspended in fresh media in 6-well plates. Cells were allowed to grow for at least seven days to allow for expansion and loss of previously activated eGFP expression.
(§1) FIG. 22 graphically illustrates data determining the optimal conditions for activating the assay to screen for PR inhibition. FIG. 22A graphically illustrates a Doxycycline titration. Clonal SupT1 cells harboring an inducible Gal4, PR/Gal4 or PRm/Gal4 were pre-incubated in a 96 well plate with either DMSO or 10 μM Indinavir and then either left untreated, or activated with […] of Dox. Cells were analyzed by flow cytometry and gated to determine the number of cells positive for eGFP expression. FIG. 22B graphically illustrates a time course of eGFP Induction in response to Doxycyline activation in the presence of DMSO or a PI. SupT1 clones harboring Gal4, PR/Gal4, or PRm/Gal4 were pre-incubated in a 96 well plate with either DMSO or 10 μM Indinavir and then activated with 1 μg/mL Dox. Cells were analyzed at either 4, 8, 12, 16, 20, 25, 50 or 75 hours by flow cytometry and gated for eGFP positive expression.

Series [4] has as its system tet-responsive element (TRE) / rtTA. Briefly: Doxycycline activation titration of clonal SupT1 cells (Tet-On induction of eGFP reporter). The format is cell-based.
Source text: To obtain an inducible cell line, we utilized the tetracycline inducible system (Tet-On). For this purpose we constructed two lentiviral vectors; one harboring a 7× Tetracycline Response Element (TRE) upstream the gene of interest and another expressing the reverse tet-transactivator (rtTA) coupled to an IRES-mCherry cassette to corroborate rtTA expression. In this system, the TRE element is bound and activated by rtTA only in the presence of an inducer (Tet or Dox). Gal4, PR/Gal4 and PRm/Gal4 were all transferred into the TRE inducible vector (see Figures).
In order to optimize the assay for maximal Gal4, PR/Gal4 or PRm/Gal4 induction, we analyzed the effect of increasing levels of Dox. Cells with 0, 50, 100, 250, 500, 750, 1,000, and 2,000 ng/mL Dox were either treated with 10 uM DMSO or 10 uM Indinavir and analyzed 32 hours later. TRE-Gal4 cells reached saturation with Doxycycline at about 1,000 ng/mL whether Indinavir was present or not. […] Again, as with transiently transfected 293 cells, TRE-PR/Gal4 cells had little to non-detectable eGFP expression at any given Dox concentration in the absence of 10 μM Indinavir.
as §1

Series [5] relates to SupT1 cells. As to the kind of experiment: Cell death in reporter SupT1 T-cell clones incubated with PR inhibitors. Particulars: SupT1 PR/Gal4 clone, 50 hrs.
Protocol: (§2) The range chosen extended from 1 nM to 20 μM.
(§3) The selected SupT1 clone expressing rtTA and mCherry, the 5×UAS-eGFP reporter and an inducible PR/Gal4 were activated with 1 μg/mL and incubated with various concentrations (1, 10, 50, 100, 500, 1000, 5000, 10000 or 20000 ng/mL) of an FDA approved PI: Either Amprenavir, Atazanavir, Darunavir, Indinavir, Lopinavir, Nelfinavir, Ritonavir, Saquinavir, or Tipranavir. Cells were then analyzed 50 hrs later for eGFP expression as determined by flow cytometry on a BD FACSAria.
The test system of series [6] is HIV-1 protease (PR). Briefly: Expression of GFP-PR fusion in cells transfected with pcDNA-GFP-PR (fluorescence microscopy). The note with it: inhibitor added at 0 and 24 h post transfection. The format is cell-based. The source says:
In one embodiment, to achieve low levels of protease, e.g., PR, expression in mammalian cells, a tetracycline (Tet) inducible system is used. FIG. 3 illustrates by fluorescence microscopy use of an exemplary vector of the invention, a Tet-inducible HIV-based self-inactivating vector, that allows regulated expression of the gene of interest. In this case, we have used the enhanced green fluorescent protein (eGFP) as the ectopic gene. This vector allows different levels of protein expression. Tight repression and expression of PR at low levels may be crucial to avoid the possible side effects of PR. […] FIG. 3 illustrates by fluorescence microscopy HeLa cells infected with a Tet inducible HIV-based self-inactivating vector. The cells were incubated with 1 μg/ml Tet and eGFP expression was observed by fluorescence microscopy 24 and 72 h post addition of Tet. […]
In summary, FIG. 4 illustrates fluorescent microscopy analysis of cells transfected with pcDNA control (Invitrogen) and pcDNA-GFP-PR. GFP expression was analyzed 24 h post transfection. […]
In summary, FIG. 5 graphically illustrates flow cytometry analysis of cells expressing PR-GFP fusion. Cells transfected with pcDNA (control) or pcDNA-GFP-PR fusions were collected 48 hr post-transfection and analyzed for GFP expression. […]

In series [7] the test system is SupT1 cells. Particulars: human, 50 h.
Protocol: as §2, §3

The record followed here is US9518254B2, “Compositions and methods for identifying enzyme and transport protein inhibitors” (San Diego State University Research Foundation, priority 2009, dated 2016).

In the case of `COC(=O)N[C@H](C(=O)N[C@@H](Cc1ccccc1)[C@@H](O)CN(Cc1ccc(-c2ccccn2)cc1)NC(=O)[C@@H](NC(=O)OC)C(C)(C)C)C(C)(C)C` [Atazanavir], in the series with HIV-1 protease (PR) [1], the “inhibitor concentration resulting in eGFP activation” value stood at 1 nM.

Turning to `CC(C)(C)NC(=O)[C@@H]1CN(Cc2cccnc2)CCN1C[C@@H](O)C[C@@H](Cc1ccccc1)C(=O)N[C@H]1c2ccccc2C[C@H]1O` [Indinavir], in the series with HIV-1 protease (PR) [2], the “eGFP induction by PR/Gal4 fusion in presence of inhibitor” value is “drastic induction”. The “inhibitor concentration inducing nearly full activation of eGFP reporter” value in the series on HIV-1 protease (PR) [1] (50 hrs) turned out to be 5 µM. In addition, the “level of reporter activation at low concentrations” value in the series on HIV-1 protease (PR) [1] (50 hrs, compared with the other FDA-approved PIs) was “lowest levels of reporter activation at low concentrations”. In addition, the “activation of PR/Gal4 clones (GFP positive)” value with HIV-1 protease (PR) [3] (SupT1 PR/Gal4 clones, Dox 1 μg/mL, PI 10 μM) is ~90%. Moreover, in the series on HIV-1 protease (PR) [3] (SupT1 clone, 1 μg/mL Dox and 10 μM inhibitor), the “time of initial induction of eGFP expression” value is 8 h. The “eGFP expression (positive cells) by 50 hours” value with HIV-1 protease (PR) [3] (SupT1 clone, 1 μg/mL Dox and 10 μM inhibitor, 50 hours) is listed as ~100%. Also, in the series with HIV-1 protease (PR) [3] (clonal SupT1 cells in 96-well plates, pre-incubation with 10 μM PI, Dox activation), the “time at which activation of clones reaches max” value is “around 48 hrs”. Further, the “eGFP induction in presence of inhibitor” value in the series on HIV-1 protease (PR) [3] (non-clonal SupT1 cells with reporter, rtTA and pH-TRE-PR/Gal4, 1 μg/mL Dox and 10 μM inhibitor) is reported as “large induction of eGFP expression”.

Turning to `C[C@H]1c2cccc(O)c2C(=O)C2=C(O)[C@]3(O)C(=O)C(C(N)=O)=C(O)[C@@H](N(C)C)[C@@H]3[C@@H](O)[C@@H]21` [Doxycycline], the “Dox concentration at saturation of eGFP induction” value in series [4] (TRE-Gal4 cells, with or without 10 uM Indinavir, 32 hours) is recorded as “about 1,000 ng/mL”; in series [4] (TRE-PRm/Gal4 cells, uninhibited and Indinavir-treated, 32 hours), “around 250 ng/mL”. Further, the “Dox concentration at maximal eGFP induction” value in series [4] (TRE-PR/Gal4 cells pre-incubated with 10 μM Indinavir, 32 hours) is recorded as “around 500 ng/mL”. Besides, the “Dox concentration at which activation is saturated” value in series [4] (clonal SupT1 cells pre-incubated with DMSO or 10 μM Indinavir) was “around 1 μg/mL”.

Turning to `CC(C)CN(C[C@@H](O)[C@H](Cc1ccccc1)NC(=O)O[C@H]1CO[C@H]2OCC[C@H]21)S(=O)(=O)c1ccc(N)cc1` [Darunavir], the “inhibitor concentration resulting in eGFP activation” value in the series with HIV-1 protease (PR) [1] amounted to 1 nM.

With `CC(C)(C)NC(=O)[C@@H]1C[C@@H]2CCCC[C@@H]2CN1C[C@@H](O)[C@H](Cc1ccccc1)NC(=O)[C@H](CC(N)=O)NC(=O)c1ccc2ccccc2n1` [Saquinavir], the “concentration with significant decline in the number of eGFP positive cells (cell death)” value in the series with SupT1 cells [5] worked out at 20 µM. For the same compound, in the series on HIV-1 protease (PR) [6], the “expression of N-terminal GFP-PR fusion in presence of inhibitor” value is “highly expressed”.

In the case of `Cc1c(O)cccc1C(=O)N[C@@H](CSc1ccccc1)[C@H](O)CN1C[C@H]2CCCC[C@H]2C[C@H]1C(=O)NC(C)(C)C` [Nelfinavir], the “concentration resulting in significant cell death, with decline in number of eGFP positive cells” value with SupT1 cells [7] was “around 1 uM”.

For the compound `Cc1cccc(C)c1OCC(=O)N[C@@H](Cc1ccccc1)[C@@H](O)C[C@H](Cc1ccccc1)NC(=O)[C@H](C(C)C)N1CCCNC1=O` [Lopinavir], the “concentration resulting in significant cell death, with decline in number of eGFP positive cells” value in the series with SupT1 cells [7] is “around 1 uM”.

As for `CCC[C@@]1(CCc2ccccc2)CC(O)=C([C@H](CC)c2cccc(NS(=O)(=O)c3ccc(C(F)(F)F)cn3)c2)C(=O)O1` [Tipranavir], in the series on HIV-1 protease (PR) [1] (50 hrs), the “inhibitor concentration inducing nearly full activation of eGFP reporter” value came to 5 µM.
